Assay type in all cases: cell-based
Data set [1] concerns MSK-Leuk1 cells. Put plainly: Cell proliferation (total DNA content, Fluorescent DNA Quantitation kit). The following applies: vector-expressing cells; 1 nM E2; 72 h; not statistically significant. The method, then: (§1) For all the experiments that involved estradiol (E2) exposure, MSK-Leuk1 cells were cultured in phenol red-free and serum-free DermaLife® K Medium (Lifeline Cell Technology, Walkersville, Md.). SCC cells were cultured in their respective media with no phenol red, supplemented with charcoal-stripped serum (Gibco, Carlsbad, Calif.). Cells were incubated for 48 h to remove endogenous estrogens and then plated at 70% confluence. After 24 h, the medium was replaced with either control medium containing vehicle (0.01% ethanol) or medium supplemented with 1 nM E2 (Sigma-Aldrich, St. Louis, Mo.). Cells were harvested after the appropriate treatment period and analyzed.
Cell proliferation. Fifty thousand cells/well were plated in 6-well plates. After the appropriate treatment, the DNA content of the cells, an indirect measure of proliferation, was determined using a Fluorescent DNA Quantitation kit (Bio-Rad Laboratories, Hercules, Calif.). In brief, cells were harvested, sonicated in 0.1×TEN assay buffer (Bio-Rad Laboratories) for 5 s, and incubated with a Hoechst dye mixture (BioRad Laboratories) for 1 h. Total DNA was measured using Fluoroscan Ascent FL (Thermo Fisher Scientific, Waltham, Mass.) at an excitation wavelength of 360 nm and an emission wavelength of 460 nm.

Data set [2] has as its system MSK-Leuk1 cells. Kind of data set: Cell motility assay (scratch gap closure, 16 h), vector- or CYP1B1 shRNA-expressing cells. The following applies: 1 nM E2, vector- and CYP1B1 shRNA-expressing MSK-Leuk1 cells. The method, then:
as §1
Cell motility assay. MSK-Leuk1 cells, expressing either vector or CYP1B1 shRNA, were cultured in phenol red-free and serum-free medium for 48 h and then plated at 70% confluence. After 24 h, the cells were treated with either vehicle or E2 (1 nM) in triplicate, as described above. […] The area devoid of cells was measured on every image using MetaMorph 7.0 (Molecular Devices, Inc., Sunnyvale, Calif.). The gap closure percentages were calculated as (area at 0 h−area at 16 h)/(area at 0 h).
In addition, a time-lapse movie capturing the process of gap closure in vector-expressing MSK-Leuk1 cells was obtained. […] The percentage of proliferating cells (those rounded up for cell division) was counted in this representative area.

The subject of data set [3] is MSK-Leuk1 cells. Put plainly: Apoptosis assay (Guava Nexin kit, annexin V positive cells). The following applies: 72 h; for decrease of apoptosis by exposure to E2: 1 nM E2; for effect on the E2-mediated decrease in apoptosis: fulvestrant 1 μM added to 1 nM E2. The method, then: as §1
Apoptosis assay. Apoptosis was assessed using the Guava Nexin kit (Millipore, Billerica, Mass.). Fifty thousand cells were plated per well in 6-well plates. After the appropriate treatment, floating cells were collected, combined with attached cells following trypsinization, and resuspended in DermaLife® K Medium (Lifeline Cell Technology, Walkersville, Md.) supplemented with 5% FBS. The cell suspension (100 μl) was incubated with 100 μl of Guava® Nexin Reagent for 20 min, according to the manufacturer's instructions. Two thousand cells were analyzed from each sample using the Guava® EasyCyte™ system, and the resulting data were expressed as a percentage of apoptotic cells (annexin V positive cells/total number of cells counted).

This is an account of results in patent publication US9101603B2, “Targeting of CYP1B1 in the treatment of head and neck cancer and lung cancer” (Institute for Cancer Research, priority 2010, dated 2015).

Take `C[C@]12CC[C@@H]3c4ccc(O)cc4CC[C@H]3[C@@H]1CC[C@@H]2O` [E2, 17β-estradiol]: the “induction of cell proliferation by E2 exposure” value with MSK-Leuk1 cells [1] is 10%. In addition, the “effect of E2 treatment on motility” value in the data set with MSK-Leuk1 cells [2] is “not affected”. Moreover, the “decrease of apoptosis by exposure to E2” value in the data set with MSK-Leuk1 cells [3] (CYP1B1 shRNA-expressing cells, P=0.015) is recorded as 30.1%; in the data set with MSK-Leuk1 cells [3] (vector-expressing cells, P=0.030), 25.5%.

As for `C[C@]12CC[C@@H]3c4ccc(O)cc4C[C@@H](CCCCCCCCC[S+]([O-])CCCC(F)(F)C(F)(F)F)[C@H]3[C@@H]1CC[C@@H]2O` (stereo partly drawn) [fulvestrant], the “effect on the E2-mediated decrease in apoptosis” value with MSK-Leuk1 cells [3] is “restored”; in the data set on MSK-Leuk1 cells [3] (listed as Fulvestrant), “restores”.
